Experimental data published in patent publication US11667631B2, “FGFR4 inhibitor, preparation method therefor, and applications thereof” (Jiangsu Hansoh Pharmaceutical Group Co., Ltd., priority 2016, dated 2023).
Like-named read-outs stand apart in the source and are kept apart here.

Legend:
FGFR1 kinase = FGFR1 kinase (Homo sapiens (Human), UniProt P11362); assay: Enzymologic experiment of FGFR1 (TR-FRET); format: biochemical; details: FGFR1 kinase activity
Method in brief: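 FGFR1 at 0.1˜5 nM final with substrate peptide 5˜50 nM and ATP 10˜200 μM final, 0.5˜3 h at room temperature. Stopped with EDTA plus labeled antibody for 1 h; TR-FRET signal read at 665 nm, IC50 fitted from inhibition rates.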

Hep 3B cells = assay: Inhibition of Hep 3B cell proliferation (CellTiter-Glo); format: cell-based; details: Homo sapiens, Hep3B
HuH-7 cells = assay: Inhibition of HuH-7 cell proliferation (CellTiter-Glo); format: cell-based; details: Homo sapiens, read-out: HuH-7 IC50
Method in brief: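 HuH-7 cells plated and left 16–24 h, then exposed to serially diluted compound for 72 h at 37 °C, 5% CO2. Viability read by CellTiter-Glo luminescence. IC50 obtained by curve fitting of inhibition rates.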

SK-HEP-1 cells = assay: Inhibition of SK-HEP-1 cell proliferation (CellTiter-Glo); format: cell-based; details: Homo sapiens, read-out: SK-HEP-1 IC50
Method in brief: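 Cells seeded and allowed to attach 16–24 h, then exposed to serially diluted compound for 72 h at 37 °C, 5% CO2. Viability read by CellTiter-Glo luminescence; IC50 fitted from inhibition rates across concentrations.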

[1] = Pharmacokinetic (PK) analysis in rats; format: in vivo, Sprague Dawley (SD) rats; details: SD rats, single intragastric administration, 5 mg/kg; for Peak Time tmax: (sampling in hours); for AUC(0-t) / AUC(0-inf) / half-life / MRT / Cmax: Sprague-Dawley, rat, plasma, po; for AUC(0-t): read-out: Area Under Curve AUC0-t; for AUC(0-inf): read-out: Area Under Curve AUC0-∞; for half-life: read-out: Half-Time t1/2 (converted); for MRT: read-out: Mean Residence Time MRT; for Cmax: read-out: Plasma Concentration Cmax
Method in brief: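 Intravenous blood (0.2 ml) was collected into K2EDTA and centrifuged to obtain plasma. Plasma (40 μL) was protein-precipitated with 160 μL acetonitrile. Compound levels were measured by LC/MS/MS on a C18 column using 0.1% formic acid in water and acetonitrile at 0.8 mL/min.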

Hep 3B cell line tumor = assay: Pharmacodynamics test in vivo, Hep 3B tumor-bearing nude mice; details: Mus musculus, Hep3B, oral 30 mg/kg, 2 times/day, read-out: Tumor inhibition rate
Protocol: a, A Hep 3B cell line was taken from the cell bank, and the cells were resuscitated with the MEM culture medium (MEM+10% FBS+1% Glu+1% SP). The cells were placed in the cell culture bottle after resuscitation (cell type, date, and the name of the culturing person were marked on the bottle wall) and were incubated in a CO2 Incubator (the incubator temperature was 37° C., and the CO2 concentration was 5%).
b, The cells were passaged after 80-90% of the bottom of the culture bottle was covered by the cells. After passage, the cells were further incubated in the CO2 incubator. The process was repeated until the number of cells met the pharmacodynamic requirements in vivo.
c, The cultured cells were collected and counted by automatic cell counter. According to the counting results, the cells were resuspended with PBS to prepare a cell suspension (density: 7×10^7/mL), which was placed in the ice box for use.
a, Nude mouse was marked with a disposable universal ear tag for mouse and rat before inoculation, and the skin of the inoculated site was disinfected with 75% medical alcohol.
b, At the time of inoculation, the cell suspension was mixed well, 0.1˜1 mL of cell suspension was taken with a 1 mL syringe, after removing air bubbles, and the syringe was placed on an ice bag for use.
c, The nude mice were inoculated successively (the inoculated site was located on the right shoulder of the right back of the nude mice, and inoculated subcutaneously with 0.1 mL of cell suspension).
a, Tumor was measured on Day 14 to Day 16 after inoculation depending on the tumor growth, and tumor size was calculated.
Tumor volume calculation: tumor volume (mm^3)=length (mm)×width (mm)×width (mm)/2
b, According to the size of the tumor, the mice were grouped by random grouping.
c, According to the results of the grouping, the test drug was administered (administration method: oral administration, administration dose: 30 mg/kg, administration volume: 10 mL/kg, administration frequency: 2 times/day, […], vehicle: 0.5% CMC/1% Tween 80).
d, The tumor was measured and weighed twice a week after the test drug was administrated.
e, Animals were euthanized at the end of the test.

FGFR4 kinase = FGFR4 kinase (Homo sapiens (Human), UniProt P22455); assay: Enzymologic experiment of FGFR4 (TR-FRET); format: biochemical; details: FGFR4 kinase activity
FGFR4 kinase, sequence (P22455 22-802): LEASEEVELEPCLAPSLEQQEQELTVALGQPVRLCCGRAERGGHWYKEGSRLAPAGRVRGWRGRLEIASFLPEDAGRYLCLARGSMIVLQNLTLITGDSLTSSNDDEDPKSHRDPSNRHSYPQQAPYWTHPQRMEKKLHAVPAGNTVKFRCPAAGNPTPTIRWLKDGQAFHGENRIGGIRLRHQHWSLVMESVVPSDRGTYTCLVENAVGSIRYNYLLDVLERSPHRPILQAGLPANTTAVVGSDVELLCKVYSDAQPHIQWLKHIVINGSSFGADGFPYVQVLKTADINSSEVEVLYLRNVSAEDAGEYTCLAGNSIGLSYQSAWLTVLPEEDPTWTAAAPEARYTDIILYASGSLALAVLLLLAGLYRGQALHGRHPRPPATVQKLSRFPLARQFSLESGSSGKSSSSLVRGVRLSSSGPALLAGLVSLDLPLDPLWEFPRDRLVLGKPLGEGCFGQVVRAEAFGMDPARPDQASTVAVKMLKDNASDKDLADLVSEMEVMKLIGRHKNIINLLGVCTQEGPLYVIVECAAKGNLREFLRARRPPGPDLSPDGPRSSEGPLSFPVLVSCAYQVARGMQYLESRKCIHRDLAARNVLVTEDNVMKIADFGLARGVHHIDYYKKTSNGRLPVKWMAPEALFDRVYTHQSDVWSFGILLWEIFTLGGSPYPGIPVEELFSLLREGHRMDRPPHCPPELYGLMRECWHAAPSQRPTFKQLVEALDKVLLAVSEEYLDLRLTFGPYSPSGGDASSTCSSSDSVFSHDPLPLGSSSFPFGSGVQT
Protocol: In this experiment, the inhibitory effect of the compounds on FGFR4 kinase activity was tested by a fluorescence resonance energy transfer (TR-FRET) method, and the half maximal inhibitory concentration (IC50) of the compounds on the FGFR4 kinase activity was determined.
2) 1˜5 μL of diluted solution in gradient of the compound was added.
3) 1˜5 μL of a substrate mixture containing substrate polypeptide with a final concentration of 5˜50 nM and ATP with a final concentration of 10˜200 μM was added.
4) The mixture was incubated for 0.5˜3 hours at room temperature.
5) 10 μL of EDTA and a test solution comprising labeled antibody were added, and the plate was incubated for 1 hour at room temperature.
7) The inhibition rates were calculated according to the fluorescence signal values.

[2] = 72 h, read-out: Hep 3B IC50, Hep 3B cell proliferation, 72 hours, CellTiter-Glo
[3] = 216 h, 9 days of administration
[4] = Hep 3B cell proliferation, 72 hours, CellTiter-Glo, read-out: Hep 3B IC50
[5] = HuH-7 cell proliferation, 72 hours, CellTiter-Glo
[6] = SK-HEP1, SK-HEP-1 cell proliferation, 72 hours, CellTiter-Glo
[7] = 336 h, 14 days of administration

FGFR1 kinase, sequence (P11362 22-822): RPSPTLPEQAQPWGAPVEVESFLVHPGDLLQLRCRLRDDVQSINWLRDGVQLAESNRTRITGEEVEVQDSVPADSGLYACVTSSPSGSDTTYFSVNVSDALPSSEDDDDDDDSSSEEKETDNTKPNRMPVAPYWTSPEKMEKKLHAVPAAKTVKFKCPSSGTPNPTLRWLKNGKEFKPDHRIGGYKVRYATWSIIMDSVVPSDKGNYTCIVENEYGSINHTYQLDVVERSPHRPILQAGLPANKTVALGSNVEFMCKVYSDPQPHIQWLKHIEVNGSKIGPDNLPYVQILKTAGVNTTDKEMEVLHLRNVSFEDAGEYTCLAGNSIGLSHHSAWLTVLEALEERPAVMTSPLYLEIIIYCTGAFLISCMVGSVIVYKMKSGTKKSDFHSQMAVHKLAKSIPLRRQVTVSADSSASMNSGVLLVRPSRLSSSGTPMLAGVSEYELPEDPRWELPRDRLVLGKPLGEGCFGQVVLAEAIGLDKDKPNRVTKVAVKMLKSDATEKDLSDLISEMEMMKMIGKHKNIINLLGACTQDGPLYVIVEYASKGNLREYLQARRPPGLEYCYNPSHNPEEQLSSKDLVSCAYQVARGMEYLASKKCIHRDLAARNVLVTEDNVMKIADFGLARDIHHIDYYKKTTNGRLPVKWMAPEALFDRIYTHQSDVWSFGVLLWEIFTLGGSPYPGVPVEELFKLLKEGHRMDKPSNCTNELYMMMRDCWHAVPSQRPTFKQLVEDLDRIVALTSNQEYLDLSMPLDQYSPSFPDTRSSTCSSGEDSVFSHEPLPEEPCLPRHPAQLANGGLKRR

COCCNc1cc(NC(=O)N2CCCc3cc(CN4CCCOCC4=O)c(C=O)nc32)ncc1C#N [Example 6]
IC50 (FGFR1 kinase): > 10000 nM
IC50 (Hep 3B cells; [2]): 1.1 nM
IC50 (HuH-7 cells; Huh-7, 72 h): 7.4 nM
IC50 (SK-HEP-1 cells; SK-HEP1, 72 h): > 10000 nM
Peak Time tmax [1]: 2 h
AUC(0-t) [1]: 9120 ng·h/mL
AUC(0-inf) [1]: 9140 ng·h/mL
half-life [1]: 0.9 h
MRT [1]: 1 h
Cmax [1]: 3500 ng/mL
inhibition in vivo at 30 mg/kg (Hep 3B cell line tumor; [3]): 78.2%

COCCNc1cc(NC(=O)N2CCCc3cc(CN4CCCCOC4=O)c(C=O)nc32)ncc1C#N [Example 23, N-(5-Cyano-4-((2-methoxyethyl)amino)pyridin-2-yl)-7-formyl-6-((2-carbonyl-1,3-oxazepin-3-yl)methyl)-3,4-dihydro-1,8-naphthyridin-1(2H)-carboxamide]
IC50 (Hep 3B cells; [2]): 4.6 nM
IC50 (HuH-7 cells; Huh-7, 72 h): 6.7 nM
IC50 (SK-HEP-1 cells; SK-HEP1, 72 h): > 10000 nM
Peak Time tmax [1]: 2 h
AUC(0-t) [1]: 9110 ng·h/mL
AUC(0-inf) [1]: 9110 ng·h/mL
half-life [1]: 1.02 h
MRT [1]: 3.5 h
Cmax [1]: 2310 ng/mL
inhibition in vivo at 30 mg/kg (Hep 3B cell line tumor; 240 h, 10 days of administration): 89.8%

COC[C@@H](C)Nc1cc(NC(=O)N2CCCc3cc(CN4CCCCOC4=O)c(C=O)nc32)ncc1C#N [Example 29]
IC50 (Hep 3B cells; [4]): 0.6 nM
IC50 (HuH-7 cells; [5]): 2.6 nM
IC50 (SK-HEP-1 cells; [6]): > 10000 nM
Mean Residence Time MRT [1]: 2.48 h
Peak Time tmax [1]: 2 h
AUC(0-t) [1]: 9460 ng·h/mL
AUC(0-inf) [1]: 9460 ng·h/mL
half-life [1]: 1.27 h
Cmax [1]: 3380 ng/mL
inhibition in vivo at 30 mg/kg (Hep 3B cell line tumor; [7]): 182%

COC[C@@H](C)Oc1cc(NC(=O)N2CCCc3cc(CN4C(=O)OCC45CC5)c(C=O)nc32)ncc1C#N [Example 42, (R)-N-(5-Cyano-4-((1-methoxypropan-2-yl)oxy)pyridin-2-yl)-7-formyl-6-((5-carbonyl-6-oxa-4-azaspiro[2.4]heptan-4-yl)methyl)-3,4-dihydro-1,8-naphthyridin-1(2H) -carboxamide]
IC50 (FGFR4 kinase): 2.3 nM
IC50 (FGFR1 kinase): > 10000 nM
IC50 (Hep 3B cells; [4]): 6.7 nM
IC50 (HuH-7 cells; [5]): 8.4 nM
IC50 (SK-HEP-1 cells; [6]): > 10000 nM
Peak Time tmax [1]: 2 h
AUC(0-t) [1]: 6670 ng·h/mL
AUC(0-inf) [1]: 6790 ng·h/mL
half-life [1]: 1.06 h
MRT [1]: 2.21 h
Cmax [1]: 2140 ng/mL
inhibition in vivo at 30 mg/kg (Hep 3B cell line tumor; [7]): 103%

N#Cc1cnc(NC(=O)N2CCCc3cc(CN4CCOCC4=O)c(C=O)nc32)cc1S[C@H]1CCOC1 [Example 55, (S)-N-(5-Cyano-4-((tetrahydrofuran-3-yl)thio)pyridin-2-yl)-7-formyl-6-((3-carbonylmorpholino)methyl)-3,4-dihydro-1,8-naphthyridin-1(2H)-carboxamide]
IC50 (FGFR1 kinase): > 10000 nM
IC50 (Hep 3B cells; [2]): 14.5 nM
IC50 (HuH-7 cells; Huh-7, 72 h): 36.1 nM
IC50 (SK-HEP-1 cells; SK-HEP1, 72 h): > 10000 nM
Peak Time tmax [1]: 4 h
AUC(0-t) [1]: 1940 ng·h/mL
AUC(0-inf) [1]: 1950 ng·h/mL
half-life [1]: 0.79 h
Cmax [1]: 2340 ng/mL
inhibition in vivo at 30 mg/kg (Hep 3B cell line tumor; [3]): 33%

N#Cc1cnc(NC(=O)N2CCCc3cc(CN4CCOCC4=O)c(C=O)nc32)cc1S[C@@H]1CCOC1 [Example 56, (R)-N-(5-Cyano-4-((tetrahydrofuran-3-yl)thio)pyridin-2-yl)-7-formyl-6-((3-carbonylmorpholino)methyl)-3,4-dihydro-1,8-naphthyridin-1(2H)-carboxamide]
IC50 (FGFR1 kinase): > 10000 nM
IC50 (Hep 3B cells; [2]): 22.7 nM
IC50 (HuH-7 cells; Huh-7, 72 h): 50.1 nM
IC50 (SK-HEP-1 cells; SK-HEP1, 72 h): > 10000 nM
Peak Time tmax [1]: 4 h
AUC(0-t) [1]: 6650 ng·h/mL
AUC(0-inf) [1]: 6780 ng·h/mL
half-life [1]: 0.96 h
Cmax [1]: 1640 ng/mL
inhibition in vivo at 30 mg/kg (Hep 3B cell line tumor; [3]): 46.4%

CO[C@H]1CCC[C@@H]1Nc1cc(NC(=O)N2CCCc3cc(CN4CCOCC4=O)c(C=O)nc32)ncc1C#N [Example 59, N-(5-Cyano-4-(((1S,2S)-2-methoxycyclopentyl)amino)pyridin-2-yl)-7-formyl-6-((3-carbonylmorpholino)methyl)-3,4-dihydro-1,8-naphthyridin-1(2H)-carboxamide]
IC50 (FGFR1 kinase): > 10000 nM
IC50 (Hep 3B cells; [2]): 8.6 nM
IC50 (HuH-7 cells; Huh-7, 72 h): 18.7 nM
IC50 (SK-HEP-1 cells; SK-HEP1, 72 h): > 10000 nM
Peak Time tmax [1]: 2 h
AUC(0-t) [1]: 1260 ng·h/mL
AUC(0-inf) [1]: 1260 ng·h/mL
half-life [1]: 0.86 h
MRT [1]: 2.23 h
Cmax [1]: 2060 ng/mL
inhibition in vivo at 30 mg/kg (Hep 3B cell line tumor; [3]): 86.7%

COCCNc1cc(NC(=O)N2CCCc3cc(CN4CCN(C5CC5)CC4=O)c(C=O)nc32)ncc1C#N [Example 65]
IC50 (FGFR4 kinase): 1.62 nM
IC50 (FGFR1 kinase): > 10000 nM
IC50 (Hep 3B cells; [4]): 4.3 nM
IC50 (HuH-7 cells; [5]): 15.2 nM
IC50 (SK-HEP-1 cells; [6]): > 10000 nM
Peak Time tmax [1]: 2 h
AUC(0-t) [1]: 2910 ng·h/mL
AUC(0-inf) [1]: 3390 ng·h/mL
half-life [1]: 1.02 h
MRT [1]: 3.72 h
Cmax [1]: 3180 ng/mL
inhibition in vivo at 30 mg/kg (Hep 3B cell line tumor; [7]): 130%
